Non-standard residues stand in square brackets, D forms with d. Residues, ends and D or L forms follow the SMILES beside them. No end group written: not given here. Cit = NC(=O)NCCC[C@H](N)C(=O)O
Assays:
[1] = Scaled Parameters = (Raw Parameters + 2.061)/4.484; cited from earlier work
[2] = tested on: C57Bl/6 mice; assay: Safety and TG elevating effects after IP injection in C57Bl/6 mice (plasma CPK, ALT, AST, lipids); type: in vivo; conditions: for muscle toxicity (plasma CPK activity) / cytotoxic/toxic response (plasma CPK, ALT, AST): plasma 4 h after injection
Method: The high-dose cytotoxic response of ATI-5261 observed in rat, rabbit and cynomolgus monkey is additionally recapitulated in mice (FIG. 4). Male chow-fed C57bl/6 mice were injected intraperitonelly (IP) with 30 or 300 mg/kg of lipid-fee ATI-5261. Blood was collected via the retro-orbital plexus 4 h after peptide injection and plasma subsequently obtained for measurement of CPK (Panel A) and ALT and AST activities (Panel B, ALT left bars; AST, right bars). Values are means±SD, n=4 mice per group.
This example illustrates that aromatic phenylalanine residues associated with the non-polar surface of ATI-5261 contributed to the majority of the peptide toxicity (FIG. 5). […] Blood was collected via retro-orbital plexus 4 h after injection for isolation of plasma. Levels of plasma CPK (Panel A), ALT (panel B) and AST (Panel C) were determined as described in FIG. 1. Values are means±SD, n=4 mice per group.
All values (mg/dl) are means±SD, n=4, determined at 4 and 6 h post treatment with peptide.

[3] = biological target: T1, ABCA1 (Mus musculus, UniProt P41233); assay: ABCA1-dependent [3H]cholesterol efflux from J774 macrophages with and without cAMP; type: cell-based; conditions: cAMP treated J774 cells; for efficiency of stimulating cholesterol efflux (concentration dependence): dose response; for Km for cholesterol efflux / peptide concentration at saturation in cholesterol efflux: increasing concentration of peptides, 4 h
T1 construct: treated (18 h) with a cAMP analog to induce ABCA1 protein expression; endogenous in cells; host or cells: J774 macrophages
Source text: Suitable cholesterol efflux assays are described in, e.g., Bielicki, J. K and Oda, M. N., Biochemistry, 41:2089-2096 (2002); Jia et al., Biochem. Biophys. Res. Common., 297:206-213 (2002). In some embodiments, a polypeptide known to mediate cholesterol efflux (e.g., helix 9/10 of Apo A-I) is used to screen for additional mediators of cholesterol efflux in a cell based assay. For example, cell lines in which cholesterol efflux can be enhanced using a cAMP analog that up-regulates ABCA1 protein expression (e.g., J774 macrophages) can conveniently be used to assess the ability of a polypeptide of the present invention to mediate cholesterol efflux. The cells are incubated with labeled cholesterol (e.g., [^3H]cholesterol) under conditions appropriate for cholesterol uptake by the cells. Thus, cAMP or cAMP analogs (e.g., CPT-cAMP) are incubated with the cells for a suitable time before the initiation of cellular cholesterol efflux, i.e., prior to contacting the cells with a test polypeptide. Measurement of labeled cholesterol appearing in the medium is used to determine the cholesterol efflux mediating activity of the test polypeptide.
Aliphatic analogs of ATI-5261 lacking phenylalanine residues retained potent ABCA1 selective cholesterol efflux activity (FIG. 7). J774 macrophages were labeled (48 h) with [^3H]cholesterol and treated (18 h) with a cAMP analog to induce ABCA1 protein expression; cells incubated in the absence of cAMP (left bars) served as controls. […] Peptides were used at a concentration of 30 μg/ml, which was maximal for promoting cholesterol efflux activity. Panel B—Dependence of cholesterol efflux on the concentration of peptides. […] Results are expressed as the difference in cholesterol efflux (%/4 h) observed using cAMP treated vs. non-treated J774 cells. Values are means±SD, n=3.

[4] = biological target: T1, ABCA1; assay: as above; type: cell-based; set-up: ABCA1-dependent cholesterol efflux: dose or concentration left out as unconfirmed; conditions: for ABCA1-dependent cholesterol efflux: J774 with/without cAMP, acceptors lipid-free, 4 h
[5] = male chow-fed C57Bl/6 mice, IP 300 mg/kg

T1 sequence (P41233 whole entry): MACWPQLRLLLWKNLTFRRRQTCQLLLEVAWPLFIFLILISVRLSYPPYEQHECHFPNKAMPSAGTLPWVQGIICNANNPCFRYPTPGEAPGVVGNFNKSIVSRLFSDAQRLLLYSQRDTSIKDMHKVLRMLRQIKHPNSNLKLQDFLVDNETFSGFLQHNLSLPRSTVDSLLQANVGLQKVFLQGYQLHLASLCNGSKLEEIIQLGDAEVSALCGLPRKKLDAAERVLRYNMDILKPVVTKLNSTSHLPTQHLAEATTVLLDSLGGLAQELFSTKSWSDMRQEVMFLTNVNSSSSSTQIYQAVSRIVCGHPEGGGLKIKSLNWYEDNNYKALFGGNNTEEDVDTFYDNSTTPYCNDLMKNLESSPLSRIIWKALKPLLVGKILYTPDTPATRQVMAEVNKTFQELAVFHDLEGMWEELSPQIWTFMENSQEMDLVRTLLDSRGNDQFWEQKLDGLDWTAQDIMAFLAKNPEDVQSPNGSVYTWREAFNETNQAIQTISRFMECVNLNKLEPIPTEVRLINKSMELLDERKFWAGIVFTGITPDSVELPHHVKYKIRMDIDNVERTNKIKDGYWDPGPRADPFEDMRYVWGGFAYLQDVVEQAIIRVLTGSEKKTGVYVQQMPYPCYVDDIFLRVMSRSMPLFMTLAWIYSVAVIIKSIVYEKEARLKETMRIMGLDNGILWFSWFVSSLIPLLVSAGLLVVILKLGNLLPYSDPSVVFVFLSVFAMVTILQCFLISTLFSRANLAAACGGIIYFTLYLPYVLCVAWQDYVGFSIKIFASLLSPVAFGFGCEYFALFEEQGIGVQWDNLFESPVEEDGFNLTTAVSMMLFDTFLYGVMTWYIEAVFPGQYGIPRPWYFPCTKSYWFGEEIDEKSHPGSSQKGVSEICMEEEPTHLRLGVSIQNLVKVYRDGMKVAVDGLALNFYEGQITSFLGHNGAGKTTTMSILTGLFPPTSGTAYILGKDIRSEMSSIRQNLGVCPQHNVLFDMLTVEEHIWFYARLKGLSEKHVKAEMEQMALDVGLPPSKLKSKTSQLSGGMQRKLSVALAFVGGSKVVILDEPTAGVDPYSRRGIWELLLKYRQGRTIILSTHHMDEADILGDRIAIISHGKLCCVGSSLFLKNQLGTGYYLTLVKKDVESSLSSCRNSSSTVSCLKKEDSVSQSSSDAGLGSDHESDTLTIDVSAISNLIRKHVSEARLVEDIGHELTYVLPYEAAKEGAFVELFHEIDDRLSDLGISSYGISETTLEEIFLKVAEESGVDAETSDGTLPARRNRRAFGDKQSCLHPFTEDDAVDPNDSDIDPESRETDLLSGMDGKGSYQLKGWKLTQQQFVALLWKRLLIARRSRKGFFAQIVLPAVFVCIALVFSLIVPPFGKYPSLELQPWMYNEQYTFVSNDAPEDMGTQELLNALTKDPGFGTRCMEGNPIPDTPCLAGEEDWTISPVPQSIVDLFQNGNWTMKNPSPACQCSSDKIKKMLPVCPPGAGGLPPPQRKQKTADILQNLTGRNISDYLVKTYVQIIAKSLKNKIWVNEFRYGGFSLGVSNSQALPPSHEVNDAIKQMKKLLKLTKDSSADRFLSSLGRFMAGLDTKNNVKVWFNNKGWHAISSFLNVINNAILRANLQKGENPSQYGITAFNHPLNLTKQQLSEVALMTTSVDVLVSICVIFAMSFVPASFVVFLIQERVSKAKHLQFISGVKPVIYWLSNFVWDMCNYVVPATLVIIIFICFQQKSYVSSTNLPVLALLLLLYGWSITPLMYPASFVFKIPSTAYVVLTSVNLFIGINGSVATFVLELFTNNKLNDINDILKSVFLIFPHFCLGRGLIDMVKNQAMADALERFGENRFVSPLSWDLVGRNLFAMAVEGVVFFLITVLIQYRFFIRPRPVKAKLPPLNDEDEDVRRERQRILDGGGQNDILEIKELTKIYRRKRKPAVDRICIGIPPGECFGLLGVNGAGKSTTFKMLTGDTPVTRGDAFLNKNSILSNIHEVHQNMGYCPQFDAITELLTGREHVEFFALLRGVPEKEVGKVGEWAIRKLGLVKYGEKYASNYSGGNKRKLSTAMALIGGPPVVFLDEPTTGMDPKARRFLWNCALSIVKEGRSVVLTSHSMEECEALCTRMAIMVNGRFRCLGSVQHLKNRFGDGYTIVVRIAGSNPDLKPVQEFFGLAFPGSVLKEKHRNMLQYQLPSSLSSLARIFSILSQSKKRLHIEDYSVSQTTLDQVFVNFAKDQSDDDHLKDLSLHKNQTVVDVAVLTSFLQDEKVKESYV

Q: For `C[C@H](N)C(=O)O` [Alanine], which “Hydrophobicity (scaled computational log(P))” value [1] is on record?
A: 0.616

Q: For `N=C(N)NCCC[C@H](N)C(=O)O` [Arginine], which “Hydrophobicity (scaled computational log(P))” value [1] is on record?
A: 0.000

Q: Which “Hydrophobicity (scaled computational log(P))” value [1] does the source give for `NC(=O)C[C@H](N)C(=O)O` [Asparagine] here?
A: 0.236

Q: For `N[C@@H](CCC(=O)O)C(=O)O` [Glutamate], which “Hydrophobicity (scaled computational log(P))” value [1] is on record?
A: 0.043

Q: For `NCC(=O)O` [Glycine], which “Hydrophobicity (scaled computational log(P))” value [1] is on record?
A: 0.501

Q: For `N[C@@H](Cc1c[nH]cn1)C(=O)O` [Histidine], which “Hydrophobicity (scaled computational log(P))” value [1] is on record?
A: 0.165

Q: With `CC[C@H](C)[C@H](N)C(=O)O` [Isoleucine] as the compound, how does the “Hydrophobicity (scaled computational log(P))” value [1] read?
A: 0.943

Q: With `NCCCC[C@H](N)C(=O)O` [Lysine] as the compound, how does the “Hydrophobicity (scaled computational log(P))” value [1] read?
A: 0.283

Q: For `CSCC[C@H](N)C(=O)O` [Methionine], which “Hydrophobicity (scaled computational log(P))” value [1] is on record?
A: 0.738

Q: With `N[C@@H](Cc1ccccc1)C(=O)O` [Phenylalanine] as the compound, how does the “Hydrophobicity (scaled computational log(P))” value [1] read?
A: 1.00

Q: For `O=C(O)[C@@H]1CCCN1` [Proline], which “Hydrophobicity (scaled computational log(P))” value [1] is on record?
A: 0.711

Q: Which “muscle toxicity (plasma CPK activity)” value [2, 5] does the source give for `CC[C@H](C)[C@H](NC(=O)[C@H](C)NC(=O)[C@H](C)NC(=O)[C@@H](NC(=O)[C@H](Cc1c[nH]c2ccccc12)NC(=O)[C@H](CCC(=O)O)NC(=O)[C@H](CCC(=O)O)NC(=O)[C@H](CC(C)C)NC(=O)[C@H](CCCCN)NC(=O)[C@H](CO)NC(=O)[C@H](CCCNC(N)=O)NC(=O)[C@@H](NC(=O)[C@@H](N)CCC(=O)O)C(C)C)[C@@H](C)CC)C(=O)N[C@@H](CCCNC(N)=O)C(=O)N[C@@H](CCC(=O)O)C(=O)N[C@H](C(=O)N[C@@H](C)C(=O)N[C@@H](CCC(=O)O)C(=O)N[C@@H](CCC(=O)O)C(=O)N[C@H](C(=O)N[C@@H](CC(C)C)C(=O)N[C@@H](C)C(=O)N[C@@H](CCCNC(=N)N)C(=O)N[C@@H](CC(C)C)C(=O)N[C@@H](CCCCN)C(=O)N[C@@H](CO)C(=O)O)[C@@H](C)CC)[C@@H](C)CC` [T6991-2, EVC*SKLEEWIAAIC*EIAEEILARLKS (SEQ ID NO:3)] (H-EV[Cit]SKLEEWIAAI[Cit]EIAEEILARLKS-OH) here?
A: little or no cytotoxic properties

Q: Which “Hydrophobicity (scaled computational log(P))” value [1] does the source give for `C[C@@H](O)[C@H](N)C(=O)O` [Threonine] here?
A: 0.450

Q: For `N[C@@H](Cc1c[nH]c2ccccc12)C(=O)O` [Tryptophan], which “Hydrophobicity (scaled computational log(P))” value [1] is on record?
A: 0.878

Q: With `N[C@@H](Cc1ccc(O)cc1)C(=O)O` [Tyrosine] as the compound, how does the “Hydrophobicity (scaled computational log(P))” value [1] read?
A: 0.880

Q: Which “Hydrophobicity (scaled computational log(P))” value [1] does the source give for `CC(C)[C@H](N)C(=O)O` [Valine] here?
A: 0.825

Q: For EARSKAEEWLAALLELAEELLARAKS [T5211-2], which “cytotoxic/toxic response (plasma CPK, ALT, AST)” value (shortened to “cytotoxic/toxic response”) [2, 5] is on record?
A: little or no toxic responses

Q: Which “TG elevating effects (plasma TG)” value [2, 5] does the source give for EARSKAEEWLAALRELAEELLARAKS [T5505-12] here?
A: greatly ablated

Q: And the “cytotoxic/toxic response” value [2, 5]?
A: low toxicity

Q: With EVKSKLEEWFAAFKEFAEEFLAKLKS [T5594-5] as the compound, how does the “cytotoxic/toxic response” value [2, 5] read?
A: displayed cytotoxic and TG elevating activity

Q: Which “muscle toxicity (plasma CPK activity)” value [2, 5] does the source give for EVNSKLEEWLAALNELAEELLARLKS [T5766-4] here?
A: greatly reduced

Q: With EVQSKLEEWLAALQELAEELLARLKS [T5766-3] as the compound, how does the “muscle toxicity (plasma CPK activity)” value [2, 5] read?
A: greatly reduced

Q: Which results are given for EVRSKLEEWFAAFREFAEEFLARL [T5766-5]?
A: cytotoxic/toxic response (plasma CPK, ALT, AST) [2, 5]: reduce the toxic responses; muscle toxicity (plasma CPK activity) [2, 5]: greatly reduced muscle toxicity

Q: For EVRSKLEEWFAAFREFAEEFLARLNS [T5594-4], which “muscle toxicity (plasma CPK activity)” value [2, 5] is on record?
A: greatly reduced muscle toxicity

Q: With EVRSKLEEWIAAIREIAEEILARLKS [T6991-1] as the compound, how does the “muscle toxicity (plasma CPK activity)” value [2, 5] read?
A: little or no cytotoxic properties

Q: Which “TG elevating effects (plasma TG)” value [2, 5] does the source give for EVRSKLEEWLAALRELAEELAARLKS [T4883-7] here?
A: further reduced

Q: What about the “cytotoxic/toxic response” value [2, 5] of the same compound?
A: further reduced cytotoxic response

Q: And the “muscle toxicity (plasma CPK activity)” value [2, 5]?
A: eliminate the residual muscle toxicity

Q: With EVRSKLEEWLAALRELAEELLARAKS [T4883-6] as the compound, how does the “TG elevating effects (plasma TG)” value [2, 5] read?
A: further reduced

Q: What about the “cytotoxic/toxic response” value [2, 5] of the same compound?
A: further reduced cytotoxic response

Q: And the “muscle toxicity (plasma CPK activity)” value [2, 5]?
A: eliminate the residual muscle toxicity

Q: For EVRSKLEEWLAALRELAEELLARLKS [T5055-13], which “plasma TG, total and unesterified (free) cholesterol (FC)” value ([2]; C57Bl/6 mice, 300 mg/kg, 4 and 6 h post treatment) is on record?
A: greatly attenuated

Q: What about the “muscle toxicity (plasma CPK activity)” value [2, 5] of the same compound?
A: residual toxicity

Q: For EVRSKLQEWFAAFREFAQEFLARLKS [T5554-1], which “cytotoxic/toxic response” value [2, 5] is on record?
A: large increase in the toxic response

Q: For “T5505-9: ATI-5261 analog with L24A; W9L substitutions (EVRSKLEELLAALRELAEELLARAKS; synthetic amphipathic alpha-helix cholesterol efflux peptide T5505-9, LeuATI-5261 analog)”, which “TG elevating effects (plasma TG)” value [2, 5] is on record?
A: markedly reduced

Q: What about the “plasma ALT and/or AST (general, hepatic toxicity)” value [2, 5] of the same compound?
A: markedly reduced

Q: What about the “muscle toxicity (plasma CPK activity)” value [2, 5] of the same compound?
A: markedly reduced

Q: What about the “efficiency of stimulating cholesterol efflux (concentration dependence)” value [3] of the same compound?
A: high efficiency

Q: What about the “Km for cholesterol efflux” value [3] of the same compound?
A: 0.58 µg/mL

Q: What about the “peptide concentration at saturation in cholesterol efflux” value [3] of the same compound?
A: ~3 µg/mL

Q: Which “cytotoxic/toxic response” value [2, 5] does the source give for “T5554-4: E→Q analog carrying the favorable citrulline substitutions (EV[Cit]SKLQEWFAAFREFAEEFLARLKS)” here?
A: retained strong toxic (CPK, ALT, and AST) and TG elevating responses

Q: With “T5554-5: E→Q analog carrying the favorable citrulline substitutions, net-charge −1 (EV[Cit]SKLQEWFAAF[Cit]EFAQEFLARLKS)” as the compound, how does the “cytotoxic/toxic response” value [2, 5] read?
A: retained strong toxic (CPK, ALT, and AST) and TG elevating responses

Q: Which “efficiency of stimulating cholesterol efflux (concentration dependence)” value [3] does the source give for “T6275-5: citrulline form of LeuATI-5261 with single citrulline14→L substitution (EV[Cit]SKLEEWLAALLELAEELLARLKS)” here?
A: highly efficient manner

Q: And the “Km for cholesterol efflux” value [3]?
A: low Km

Q: What about the “peptide concentration at saturation in cholesterol efflux” value [3] of the same compound?
A: 3 µg/mL

Q: With “Y26 form of CS6253: CS6253 with a S26→Y substitution to facilitate labeling with 125I (SEQ ID NO:87) (EV[Cit]SKLEEWLAAL[Cit]ELAEELLARLKY)” as the compound, how does the “ABCA1-dependent cholesterol efflux activity” value ([4]; J774 macrophages with/without cAMP, peptide 10 μg/ml) read?
A: mediating high-levels of cholesterol efflux

Q: With “apoA-I: Apolipoprotein A-I, native apolipoprotein used lipid-free as cholesterol efflux acceptor” as the compound, how does the ABCA1-dependent cholesterol efflux [4] read?
A: High-levels of cholesterol efflux

Q: Which ABCA1-dependent cholesterol efflux [4] does the source give for “apoE: Apolipoprotein E, native apolipoprotein used lipid-free as cholesterol efflux acceptor” here?
A: High-levels of cholesterol efflux
